Laboratory results taken from ChEMBL document CHEMBL4049411, “Rational Design, Synthesis, and Biological Evaluation of Heterocyclic Quinolones Targeting the Respiratory Chain of Mycobacterium tuberculosis” (J Med Chem, 2017).
Converted amounts (≈) assume the structure as drawn.

Experiments:
[1] = tested on: HepG2; test: Cytotoxicity against human HepG2 cells after 24 hrs in presence of glucose by MTT assay; assay type: cell-based; details: hepg2, 24 h
[2] = tested on: Mycobacterium tuberculosis H37Rv; test: (§1) Inhibition of replicating Mycobacterium tuberculosis H37Rv NDH assessed as cell growth inhibition after 7 days by MABA method
[3] = as §1; details: 168 h
[4] = Metabolic stability in mouse liver microsomes assessed as half life for metabolic turnover at 0.1 to 10 uM preincubated for 60 mins in presence of NADPH measured up to 60 mins by mass spectroscopic analysis; assay type: ADME, microsome
[5] = Metabolic stability in human liver microsomes assessed as half life for metabolic turnover at 0.1 to 10 uM preincubated for 60 mins in presence of NADPH measured up to 60 mins by mass spectroscopic analysis; assay type: ADME, microsome
[6] = Metabolic stability in rat liver microsomes assessed as half life for metabolic turnover at 0.1 to 10 uM preincubated for 60 mins in presence of NADPH measured up to 60 mins by mass spectroscopic analysis; assay type: ADME, microsome
[7] = Protein binding in human plasma at 1 uM after 18 hrs by equilibrium dialysis; assay type: ADME, cell-free; details: read-out: PPB (converted)
[8] = Lipophilicity, logD of compound at pH 7.4; details: buffer
[9] = Aqueous solubility of compound; assay type: physicochemical; details: buffer
[10] = Intrinsic clearance in human microsomes; assay type: ADME, Microsome; details: read-out: CLH
[11] = Intrinsic clearance in rat hepatocytes assessed per million cells; assay type: ADME, cell-based, Hepatocyte; details: read-out: CLH

Row | SMILES | IC50 [3] [µM] | further results
1 | Cc1c(-c2ccc(N3CCC(F)CC3)cc2)[nH]c2cc(F)cc(F)c2c1=O | 0.94 to 0.95 | Activity [1]: 102.2 µM; IC90 [2]: 1.83 µM; half-life at up to 10 µM [4]: 4.4 min; half-life at up to 10 µM [5]: 5.7 min; half-life at up to 10 µM [6]: 8.4 min
2 | Cc1c(-c2ccc(N3CCC4(CC3)CC4)cc2)[nH]c2cc(F)cc(F)c2c1=O | > 10 | 
3 | Cc1c(-c2ccc(N3CCCCC3)cc2)[nH]c2cc(F)ccc2c1=O | > 10 | 
4 | Cc1c(-c2ccc(N3CCCCC3)cc2)[nH]c2ccc(F)cc2c1=O | 1.83 | 
5 | Cc1c(-c2ccc(N3CCC[C@@H]3C(=O)NC3CCOCC3)cc2)[nH]c2cc(F)cc(F)c2c1=O | > 10 | 
6 | Cc1c(-c2ccc(N3CCC(C)(O)C3)cc2)[nH]c2cc(F)cc(F)c2c1=O (configuration not stated) | > 10 | 
7 | Cc1c(-c2ccc(N3CCN(C)CC3)cc2)[nH]c2cc(F)cc(F)c2c1=O | > 10 | 
8 | Cc1c(-c2ccc(N3CC[C@@H]3C(=O)N(C)C)cc2)[nH]c2cc(F)cc(F)c2c1=O | > 10 | 
9 | Cc1c(-c2ccc(-n3cccc3)c(Cl)c2)[nH]c2cc(F)cc(F)c2c1=O | > 10 | 
10 | O=c1cc(-c2ccc(N3CCCCC3)cc2)[nH]c2ccccc12 | > 10 | 
11 | COc1cc2[nH]c(-c3ccc(N4CCCCC4)cc3)c(C)c(=O)c2cc1F | 0.52 | fraction unbound at 18 h, 1 µM [7]: 0.012; logD [8]: 3.9; solubility [9]: 2 µM (≈ 0.733 µg/mL); microsomal CLint [10]: > 300 µL/min/mg; hepatocyte CLint [11]: 231 µL/min/1e6 cells
12 | COc1ccc2c(=O)cc(-c3ccc(N4CCC(F)CC4)cc3)[nH]c2c1 | > 10 | 
13 | COc1cc2[nH]c(-c3ccc(N4CCCCC4)cc3)c(C)c(=O)c2cc1OC | > 10 | 
14 | O=c1c(Cl)c(-c2ccc(N3CCC(F)CC3)cc2)[nH]c2ccccc12 | > 10 | 
15 | Cc1c(-c2ccc(-n3cccc3C#N)cc2)[nH]c2cc(F)cc(F)c2c1=O | > 10 | 
16 | Cc1c(-c2ccc(N3CCC[C@@H]3C(=O)N(C)C)cc2)[nH]c2cc(F)cc(F)c2c1=O | > 10 | 
17 | Cc1c(-c2cccc(N3CCCCC3)c2)[nH]c2cc(F)cc(F)c2c1=O | > 10 | 
18 | Cc1c(-c2ccc(N3CCC[C@H]3CO)cc2)[nH]c2cc(F)cc(F)c2c1=O | 1.59 | fraction unbound at 18 h, 1 µM [7]: 0.045; logD [8]: > 3.4; solubility [9]: 4 µM (≈ 1.48 µg/mL); microsomal CLint [10]: > 300 µL/min/mg; hepatocyte CLint [11]: 36.5 µL/min/1e6 cells
19 | O=c1c(Br)c(-c2ccc(N3CCC(F)CC3)cc2)[nH]c2ccccc12 | > 10 | 
20 | Cc1c(-c2ccc(N3CCC(F)CC3)cc2)[nH]c2ccccc2c1=O | > 10 | 

Row | SMILES | IC50 [3] [µM] | further results
21 | Cc1c(-c2ccc(NCc3ccccc3)cc2)[nH]c2cc(F)cc(F)c2c1=O | > 10 | 
22 | Cc1c(-c2ccc(N3CCCC(C)C3)cc2)[nH]c2cc(F)cc(F)c2c1=O (configuration not stated) | 0.367 to 0.37 | Activity [1]: > 100 µM; IC90 [2]: 0.63 µM; half-life at up to 10 µM [4]: 22.3 min; half-life at up to 10 µM [5]: 7.9 min; half-life at up to 10 µM [6]: 10.8 min
23 | Cc1c(-c2ccc(N3CCCC(F)(F)C3)cc2)[nH]c2cc(F)cc(F)c2c1=O | 0.36 to 0.361 | IC90 [2]: 0.83 µM; half-life at up to 10 µM [4]: 16.2 min; half-life at up to 10 µM [5]: 17.4 min; half-life at up to 10 µM [6]: 13.7 min
24 | Cc1c(-c2ccc(N3CCC[C@@H]3C(=O)NC(C)(C)C)cc2)[nH]c2cc(F)cc(F)c2c1=O | 0.96 | 
25 | O=c1c(Br)c(-c2ccc(N3CCCCC3)cc2)[nH]c2ccccc12 | 0.6 | 
26 | COc1ccc2c(=O)c(C)c(-c3ccc(N4CCC(Cc5ccccc5)CC4)cc3)[nH]c2c1 | > 10 | 
27 | Cc1c(-c2ccc(-n3ccc4ccccc43)cc2)[nH]c2cc(F)cc(F)c2c1=O | > 10 | 
28 | Cc1c(-c2ccc(-n3cccc3)cc2)[nH]c2cccc(F)c2c1=O | 0.71 | 
29 | Cc1c(-c2ccc(N3CCC[C@H]3COCc3ccccc3)cc2)[nH]c2cc(F)cc(F)c2c1=O | 0.96 | 
30 | COc1ccc2c(=O)c(C)c(-c3ccc(N4CCN(c5ccccc5)CC4)cc3)[nH]c2c1 | > 10 | 
31 | Cc1c(-c2ccc(-n3cc(F)c(F)c3)cc2)[nH]c2cc(F)cc(F)c2c1=O | > 10 | IC90 [2]: > 10 µM; half-life at up to 10 µM [4]: ≥ 60 min; half-life at up to 10 µM [5]: ≥ 60 min; half-life at up to 10 µM [6]: ≥ 60 min
32 | Cc1c(-c2ccc(N3CCN(Cc4ccccc4)CC3)cc2)[nH]c2ccccc2c1=O | 5.74 | 
33 | Cc1c(-c2ccc(N3CCC[C@@H]3C(=O)N3CCC(F)CC3)cc2)[nH]c2cc(F)cc(F)c2c1=O | > 10 | 
34 | COc1ccc2c(=O)c(Cl)c(-c3ccc(N4CCC(F)CC4)cc3)[nH]c2c1 | > 10 | 
35 | COc1ccc2c(=O)c(C)c(-c3ccc(N4CCC(F)CC4)cc3)[nH]c2c1 | 1.32 | 
36 | Cc1c(-c2ccc(N3CCCCC3)cc2)[nH]c2cc(Cl)ccc2c1=O | > 10 | 
37 | Cc1c(-c2ccc(N3CCCC(C)(O)C3)cc2)[nH]c2cc(F)cc(F)c2c1=O (configuration not stated) | 5.01 | 
38 | Cc1c(-c2ccc(N3CCC[C@@H](C)C3)cc2)[nH]c2cc(F)cc(F)c2c1=O | 0.47 | fraction unbound at 18 h, 1 µM [7]: 0.005; logD [8]: 4.7; solubility [9]: < 0.5 µM; microsomal CLint [10]: > 300 µL/min/mg; hepatocyte CLint [11]: 183 µL/min/1e6 cells
39 | COc1ccc2c(=O)c(C)c(-c3ccc(N4CCN(Cc5ccccc5)CC4)cc3)[nH]c2c1 | > 10 | 
40 | COc1ccc2c(=O)c(C)c(-c3ccc(-n4cc(F)c(F)c4)cc3)[nH]c2c1 | > 10 | 

Row | SMILES | IC50 [3] [µM] | further results
41 | Cc1c(-c2ccc(-n3cccn3)cc2)[nH]c2cc(F)cc(F)c2c1=O | > 10 | 
42 | Cc1c(-c2ccc(-n3cccc3)cc2F)[nH]c2cc(F)cc(F)c2c1=O | > 10 | 
43 | COc1ccc2c(=O)cc(-c3ccc(N4CCCCC4)cc3)[nH]c2c1 | > 10 | 
44 | COc1cc2[nH]c(-c3ccc(-n4cc(F)c(F)c4)cc3)c(C)c(=O)c2cc1Cl | > 10 | 
45 | COc1cc2[nH]c(-c3ccc(N4CCCCC4)cc3)c(C)c(=O)c2cc1Cl | > 10 | 
46 | O=c1c(Cl)c(-c2ccc(N3CCCCC3)cc2)[nH]c2ccccc12 | 1.56 | 
47 | Cc1c(-c2ccc(N3CC(F)(F)C3)cc2)[nH]c2cc(F)cc(F)c2c1=O | 1.53 | 
48 | Cc1c(-c2ccc(N3CCC(Cc4ccccc4)CC3)cc2)[nH]c2ccc(F)cc2c1=O | > 10 | 
49 | Cc1c(-c2ccc(N3CCC[C@@H]3C(=O)N3CCOCC3)cc2)[nH]c2cc(F)cc(F)c2c1=O | > 10 | 
50 | Cc1c(-c2ccc(N3CCC(F)(F)CC3)cc2)[nH]c2cc(F)cc(F)c2c1=O | > 10 | 
51 | Cc1c(-c2ccc(N3CCCCC3)cc2)[nH]c2cc(F)cc(F)c2c1=O | 0.27 | Activity [1]: > 100 µM; IC90 [2]: 0.78 µM; half-life at up to 10 µM [4]: 8.27 min; half-life at up to 10 µM [5]: 7.31 min; half-life at up to 10 µM [6]: 8.3 min
52 | Cc1c(-c2ccc(N3CC(C)(O)C3)cc2)[nH]c2cc(F)cc(F)c2c1=O | > 10 | 
53 | Cc1c(-c2ccc(N3CCN(Cc4ccccc4)CC3)cc2)[nH]c2ccc(F)cc2c1=O | > 10 | 
54 | Cc1c(-c2ccc(N3CCC(C(F)(F)F)CC3)cc2)[nH]c2cc(F)cc(F)c2c1=O | > 10 | 
55 | Cc1c(-c2ccc(N3CC[C@@H]3C(=O)NC(C)(C)C)cc2)[nH]c2cc(F)cc(F)c2c1=O | > 10 | 
56 | Cc1c(-c2ccc(N3CCC(Cc4ccccc4)CC3)cc2)[nH]c2ccccc2c1=O | > 10 | 
57 | Cc1c(-c2ccc(N(C)C)cc2)[nH]c2cc(F)cc(F)c2c1=O | 0.41 | 
58 | COc1cc(OC)c2c(=O)c(C)c(-c3ccc(N4CCCCC4)cc3)[nH]c2c1 | > 10 | 
59 | Cc1c(-c2ccc(N3CCC(C)CC3)cc2)[nH]c2cc(F)cc(F)c2c1=O | 0.61 to 0.611 | Activity [1]: > 100 µM; IC90 [2]: 1.93 µM; half-life at up to 10 µM [4]: < 10 min; half-life at up to 10 µM [5]: < 10 min; half-life at up to 10 µM [6]: < 10 min
